Reference: ChEMBL document CHEMBL3297661, “1-Substituted-5-[(3,5-dinitrobenzyl)sulfanyl]-1H-tetrazoles and their isosteric analogs: A new class of selective antitubercular agents active against drug-susceptible and multidrug-resistant mycobacteria” (Eur J Med Chem, 2014)
In brackets after ≈: the same amount, converted by molar mass.

Assays:
[1] = system: Mycobacterium tuberculosis; assay: Antimycobacterial activity against Mycobacterium tuberculosis CNCTC My 331/88 after 14 days by micromethod; assay type: functional; details: CNCTC My 331/88, 336 h
Mycobacterium kansasii [2] = assay: Antimycobacterial activity against Mycobacterium kansasii CNCTC My 235/80 after 21 days by micromethod; assay type: functional; details: CNCTC My 235/80, 504 h
[3] = system: Mycobacterium tuberculosis; assay: Antimycobacterial activity against Mycobacterium tuberculosis CNCTC My 331/88 after 21 days by micromethod; assay type: functional; details: CNCTC My 331/88, 504 h
Mycobacterium avium [4] = assay: Antimycobacterial activity against Mycobacterium avium CNCTC My 330/88 after 14 days by micromethod; assay type: functional; details: CNCTC My 330/88, 336 h
Mycobacterium kansasii [5] = assay: Antimycobacterial activity against Mycobacterium kansasii 6509/96 after 21 days by micromethod; assay type: functional; details: 6509/96, 504 h
Mycobacterium kansasii [6] = assay: Antimycobacterial activity against Mycobacterium kansasii CNCTC My 235/80 after 7 days by micromethod; assay type: functional; details: CNCTC My 235/80, 168 h
Mycobacterium avium [7] = assay: Antimycobacterial activity against Mycobacterium avium CNCTC My 330/88 after 21 days by micromethod; assay type: functional; details: CNCTC My 330/88, 504 h
Mycobacterium kansasii [8] = assay: Antimycobacterial activity against Mycobacterium kansasii 6509/96 after 7 days by micromethod; assay type: functional; details: 6509/96, 168 h
Mycobacterium kansasii [9] = assay: Antimycobacterial activity against Mycobacterium kansasii 6509/96 after 14 days by micromethod; assay type: functional; details: 6509/96, 336 h
Mycobacterium kansasii [10] = assay: Antimycobacterial activity against Mycobacterium kansasii CNCTC My 235/80 after 14 days by micromethod; assay type: functional; details: CNCTC My 235/80, 336 h
[11] = Cytotoxicity against human HuH7 cells assessed as reduction in cell viability after 48 hrs by MTT assay; assay type: cell-based; details: Huh-7, 48 h
[12] = Cytotoxicity against human HeLa cells assessed as cell viability at 30 uM after 48 hrs by MTT assay; assay type: cell-based; details: read-out: Activity
HepG2 = assay: Cytotoxicity against human HepG2 cells assessed as reduction in cell viability after 48 hrs by MTT assay; assay type: cell-based; details: HepG2, 48 h
[13] = Cytotoxicity against MDCK2 cells assessed as reduction in cell viability after 48 hrs by MTT assay; assay type: cell-based; details: Canis lupus familiaris, MDCK-II
[14] = Cytotoxicity against human HepG2 cells assessed as cell viability at 30 uM after 48 hrs by MTT assay; assay type: cell-based; details: read-out: Activity
HeLa = assay: Cytotoxicity against human HeLa cells assessed as reduction in cell viability after 48 hrs by MTT assay; assay type: cell-based
[15] = Cytotoxicity against MDCK2 cells assessed as cell viability at 30 uM after 48 hrs by MTT assay; assay type: cell-based, Canis lupus familiaris, MDCK-II; details: dog, read-out: Activity
[16] = Cytotoxicity against human HuH7 cells assessed as cell viability at 30 uM after 48 hrs by MTT assay; assay type: cell-based, Huh-7; details: read-out: Activity

SMILES	MIC [1]	MIC (Mycobacterium kansasii [2])	MIC [3]	MIC (Mycobacterium avium [4])	MIC (Mycobacterium kansasii [5])	MIC (Mycobacterium kansasii [6])	MIC (Mycobacterium avium [7])	MIC (Mycobacterium kansasii [8])	MIC (Mycobacterium kansasii [9])	MIC (Mycobacterium kansasii [10])	IC50 [11]	viability at 48 h, 30 µM [12]	IC50 (HepG2)	IC50 [13]	viability at 48 h, 30 µM [14]	IC50 (HeLa)	viability at 48 h, 30 µM [15]	viability at 48 h, 30 µM [16]
COc1cc(-n2nnnc2OCc2cc([N+](=O)[O-])cc([N+](=O)[O-])c2)cc(OC)c1OC	16 µM (≈ 6.92 µg/mL)	32 µM (≈ 13.8 µg/mL)	16 µM (≈ 6.92 µg/mL)	32 µM (≈ 13.8 µg/mL)	62 µM (≈ 26.8 µg/mL)	8 µM (≈ 3.46 µg/mL)	32 µM (≈ 13.8 µg/mL)	16 µM (≈ 6.92 µg/mL)	32 µM (≈ 13.8 µg/mL)	16 µM (≈ 6.92 µg/mL)								
c1ccc(C[Se]c2nnnn2C2CCCCC2)cc1	125 µM (≈ 40.2 µg/mL)	32 µM (≈ 10.3 µg/mL)	125 µM (≈ 40.2 µg/mL)	125 µM (≈ 40.2 µg/mL)	500 µM (≈ 161 µg/mL)	8 µM (≈ 2.57 µg/mL)	125 µM (≈ 40.2 µg/mL)	62 µM (≈ 19.9 µg/mL)	250 µM (≈ 80.3 µg/mL)	32 µM (≈ 10.3 µg/mL)								
O=[N+]([O-])c1cc(C[S+]([O-])c2nnnn2C2CCCCC2)cc([N+](=O)[O-])c1 (stereo unspecified)	8 µM (≈ 3.04 µg/mL)	62 µM (≈ 23.6 µg/mL)	16 µM (≈ 6.09 µg/mL)	125 µM (≈ 47.5 µg/mL)	32 µM (≈ 12.2 µg/mL)	4 µM (≈ 1.52 µg/mL)	125 µM (≈ 47.5 µg/mL)	4 µM (≈ 1.52 µg/mL)	16 µM (≈ 6.09 µg/mL)	16 µM (≈ 6.09 µg/mL)	> 30 µM	62%	23 µM	> 30 µM	42%	> 30 µM	52%	84%
COc1ccc(-n2nnnc2SCc2ccc([N+](=O)[O-])cc2[N+](=O)[O-])cc1	8 µM (≈ 3.11 µg/mL)	62 µM (≈ 24.1 µg/mL)	8 µM (≈ 3.11 µg/mL)	62 µM (≈ 24.1 µg/mL)	32 µM (≈ 12.4 µg/mL)	32 µM (≈ 12.4 µg/mL)	62 µM (≈ 24.1 µg/mL)	8 µM (≈ 3.11 µg/mL)	16 µM (≈ 6.21 µg/mL)	62 µM (≈ 24.1 µg/mL)								
c1ccc(C[Se]c2nnnn2-c2ccccc2)cc1	125 µM (≈ 39.4 µg/mL)	16 µM (≈ 5.04 µg/mL)	125 µM (≈ 39.4 µg/mL)	62 µM (≈ 19.5 µg/mL)	250 µM (≈ 78.8 µg/mL)	2 µM (≈ 0.63 µg/mL)	125 µM (≈ 39.4 µg/mL)	32 µM (≈ 10.1 µg/mL)	125 µM (≈ 39.4 µg/mL)	8 µM (≈ 2.52 µg/mL)								
COc1ccc(-n2nnnc2SCc2cc(N)cc([N+](=O)[O-])c2)cc1	250 µM (≈ 89.6 µg/mL)	250 µM (≈ 89.6 µg/mL)	250 µM (≈ 89.6 µg/mL)	250 µM (≈ 89.6 µg/mL)	250 µM (≈ 89.6 µg/mL)	250 µM (≈ 89.6 µg/mL)	250 µM (≈ 89.6 µg/mL)	250 µM (≈ 89.6 µg/mL)	250 µM (≈ 89.6 µg/mL)	250 µM (≈ 89.6 µg/mL)								
O=[N+]([O-])c1cc(CSc2nnn[nH]2)cc([N+](=O)[O-])c1	1000 µM (≈ 282 µg/mL)	1000 µM (≈ 282 µg/mL)	1000 µM (≈ 282 µg/mL)	1000 µM (≈ 282 µg/mL)	500 µM (≈ 141 µg/mL)	250 µM (≈ 70.6 µg/mL)	1000 µM (≈ 282 µg/mL)	250 µM (≈ 70.6 µg/mL)	500 µM (≈ 141 µg/mL)	1000 µM (≈ 282 µg/mL)								
O=[N+]([O-])c1cc(COc2nnnn2-c2ccc(Cl)c(Cl)c2)cc([N+](=O)[O-])c1	4 µM (≈ 1.64 µg/mL)	32 µM (≈ 13.2 µg/mL)	4 µM (≈ 1.64 µg/mL)	32 µM (≈ 13.2 µg/mL)	32 µM (≈ 13.2 µg/mL)	4 µM (≈ 1.64 µg/mL)	62 µM (≈ 25.5 µg/mL)	4 µM (≈ 1.64 µg/mL)	16 µM (≈ 6.58 µg/mL)	16 µM (≈ 6.58 µg/mL)	> 30 µM	69%	25 µM	22 µM	27%	> 30 µM	22%	111%
O=[N+]([O-])c1cc(CSc2nnnn2-c2ccccc2)cc([N+](=O)[O-])c1	4 µM (≈ 1.43 µg/mL)	16 µM (≈ 5.73 µg/mL)	4 µM (≈ 1.43 µg/mL)	62 µM (≈ 22.2 µg/mL)	4 µM (≈ 1.43 µg/mL)	2 µM (≈ 0.717 µg/mL)	62 µM (≈ 22.2 µg/mL)	2 µM (≈ 0.717 µg/mL)	2 µM (≈ 0.717 µg/mL)	4 µM (≈ 1.43 µg/mL)								
CCN(CC)c1ccc(-n2nnnc2SCc2cc([N+](=O)[O-])cc([N+](=O)[O-])c2)cc1	2 µM (≈ 0.859 µg/mL)	32 µM (≈ 13.7 µg/mL)	2 µM (≈ 0.859 µg/mL)	62 µM (≈ 26.6 µg/mL)	62 µM (≈ 26.6 µg/mL)	4 µM (≈ 1.72 µg/mL)	62 µM (≈ 26.6 µg/mL)	8 µM (≈ 3.44 µg/mL)	16 µM (≈ 6.87 µg/mL)	8 µM (≈ 3.44 µg/mL)								
CSCc1cc([N+](=O)[O-])cc([N+](=O)[O-])c1	62 µM (≈ 14.2 µg/mL)	250 µM (≈ 57.1 µg/mL)	125 µM (≈ 28.5 µg/mL)	250 µM (≈ 57.1 µg/mL)	500 µM (≈ 114 µg/mL)	62 µM (≈ 14.2 µg/mL)	250 µM (≈ 57.1 µg/mL)	125 µM (≈ 28.5 µg/mL)	250 µM (≈ 57.1 µg/mL)	125 µM (≈ 28.5 µg/mL)								
